Results from ChEMBL document CHEMBL3045561, “Feeding deterrents from Zanthoxylum schinifolium against two stored-product insects” (J Agric Food Chem, 2009).

Tests used:
[1] = test system: Tribolium castaneum; test: Feeding deterrent activity against adult Tribolium castaneum (red flour beetle) on compound pre-treated wheat flour disks assessed as food utilization rate at 3 ppm after 3 days by flour disk bioassay (reference value: 20.59 +/-1.47%); assay type: functional
[2] = test system: Sitophilus zeamais; test: Feeding deterrent activity against adult Sitophilus zeamais on compound pretreated wheat flour disks assessed as food utilization rate at 300 ppm after 3 days by flour disk bioassay (reference value: 11.09 +/-1.12%); assay type: functional
[3] = test system: Sitophilus zeamais; test: Feeding deterrent activity against adult Sitophilus zeamais on compound pretreated wheat flour disks assessed as food utilization rate at 100 ppm after 3 days by flour disk bioassay (reference value: 11.09 +/-1.12%); assay type: functional
[4] = test system: Sitophilus zeamais; test: Feeding deterrent activity against adult Sitophilus zeamais on compound pretreated wheat flour disks assessed as food utilization rate at 30 ppm after 3 days by flour disk bioassay (reference value: 11.09 +/-1.12%); assay type: functional
[5] = test system: Sitophilus zeamais; test: Feeding deterrent activity against adult Sitophilus zeamais on compound pretreated wheat flour disks assessed as food utilization rate at 10 ppm after 3 days by flour disk bioassay (reference value: 11.09 +/-1.12%); assay type: functional
[6] = test system: Sitophilus zeamais; test: Feeding deterrent activity against adult Sitophilus zeamais on compound pretreated wheat flour disks assessed as food utilization rate at 3 ppm after 3 days by flour disk bioassay (reference value: 11.09 +/-1.12%); assay type: functional
[7] = test system: Tribolium castaneum; test: Feeding deterrent activity against adult Tribolium castaneum (red flour beetle) on compound pre-treated wheat flour disks assessed as relative food consumption rate at 30 ppm after 3 days by flour disk bioassay (reference value: 143.22 +/-4.32 ug/mg/day); assay type: functional
[8] = test system: Tribolium castaneum; test: Feeding deterrent activity against adult Tribolium castaneum (red flour beetle) on compound pre-treated wheat flour disks assessed as relative food consumption rate at 10 ppm after 3 days by flour disk bioassay (reference value: 143.22 +/-4.32 ug/mg/day); assay type: functional
[9] = test system: Tribolium castaneum; test: Feeding deterrent activity against adult Tribolium castaneum (red flour beetle) on compound pre-treated wheat flour disks assessed as relative food consumption rate at 3 ppm after 3 days by flour disk bioassay (reference value: 143.22 +/-4.32 ug/mg/day); assay type: functional
[10] = test system: Sitophilus zeamais; test: Feeding deterrent activity against adult Sitophilus zeamais on compound pretreated wheat flour disks assessed as relative food consumption rate at 1000 ppm after 3 days by flour disk bioassay (reference value: 122.72 +/-4.32 ug/mg/day); assay type: functional
[11] = test system: Sitophilus zeamais; test: Feeding deterrent activity against adult Sitophilus zeamais on compound pretreated wheat flour disks assessed as relative food consumption rate at 300 ppm after 3 days by flour disk bioassay (reference value: 122.72 +/-4.32 ug/mg/day); assay type: functional
[12] = test system: Sitophilus zeamais; test: Feeding deterrent activity against adult Sitophilus zeamais on compound pretreated wheat flour disks assessed as relative food consumption rate at 3 ppm after 3 days by flour disk bioassay (reference value: 122.72 +/-4.32 ug/mg/day); assay type: functional
[13] = test system: Tribolium castaneum; test: Feeding deterrent activity against adult Tribolium castaneum (red flour beetle) on compound pre-treated wheat flour disks after 3 days by flour disk bioassay; assay type: functional, organism-based
[14] = test system: Tribolium castaneum; test: Feeding deterrent activity against adult Tribolium castaneum (red flour beetle) on compound pre-treated wheat flour disks at 10 ppm after 3 days by flour disk bioassay; assay type: functional
[15] = test system: Tribolium castaneum; test: Feeding deterrent activity against adult Tribolium castaneum (red flour beetle) on compound pre-treated wheat flour disks assessed as relative growth rate at 30 ppm after 3 days by flour disk bioassay (reference value: 29.49 +/-1.35 ug/mg/day); assay type: functional
[16] = test system: Tribolium castaneum; test: Feeding deterrent activity against adult Tribolium castaneum (red flour beetle) on compound pre-treated wheat flour disks assessed as relative growth rate at 10 ppm after 3 days by flour disk bioassay (reference value: 29.49 +/-1.35 ug/mg/day); assay type: functional
[17] = test system: Tribolium castaneum; test: Feeding deterrent activity against adult Tribolium castaneum (red flour beetle) on compound pre-treated wheat flour disks assessed as relative growth rate at 3 ppm after 3 days by flour disk bioassay (reference value: 29.49 +/-1.35 ug/mg/day); assay type: functional
[18] = test system: Sitophilus zeamais; test: Feeding deterrent activity against adult Sitophilus zeamais on compound pretreated wheat flour disks assessed as relative growth rate at 1000 ppm after 3 days by flour disk bioassay (reference value: 13.61 +/-1.13 ug/mg/day); assay type: functional
[19] = test system: Sitophilus zeamais; test: Feeding deterrent activity against adult Sitophilus zeamais on compound pretreated wheat flour disks assessed as relative growth rate at 300 ppm after 3 days by flour disk bioassay (reference value: 13.61 +/-1.13 ug/mg/day); assay type: functional
[20] = test system: Sitophilus zeamais; test: Feeding deterrent activity against adult Sitophilus zeamais on compound pretreated wheat flour disks assessed as relative growth rate at 100 ppm after 3 days by flour disk bioassay (reference value: 13.61 +/-1.13 ug/mg/day); assay type: functional
[21] = test system: Sitophilus zeamais; test: Feeding deterrent activity against adult Sitophilus zeamais on compound pretreated wheat flour disks assessed as relative growth rate at 10 ppm after 3 days by flour disk bioassay (reference value: 13.61 +/-1.13 ug/mg/day); assay type: functional
[22] = test system: Sitophilus zeamais; test: Feeding deterrent activity against adult Sitophilus zeamais on compound pretreated wheat flour disks assessed as relative growth rate at 30 ppm after 3 days by flour disk bioassay (reference value: 13.61 +/-1.13 ug/mg/day); assay type: functional
[23] = test system: Tribolium castaneum; test: Feeding deterrent activity against adult Tribolium castaneum (red flour beetle) on compound pre-treated wheat flour disks at 3 ppm after 3 days by flour disk bioassay; assay type: functional
[24] = test system: Sitophilus zeamais; test: Feeding deterrent activity against adult Sitophilus zeamais on compound pretreated wheat flour disks at 300 ppm after 3 days by flour disk bioassay; assay type: functional
[25] = test system: Sitophilus zeamais; test: Feeding deterrent activity against adult Sitophilus zeamais on compound pretreated wheat flour disks at 100 ppm after 3 days by flour disk bioassay; assay type: functional
[26] = test system: Sitophilus zeamais; test: Feeding deterrent activity against adult Sitophilus zeamais on compound pretreated wheat flour disks at 10 ppm after 3 days by flour disk bioassay; assay type: functional
[27] = test system: Sitophilus zeamais; test: Feeding deterrent activity against adult Sitophilus zeamais on compound pretreated wheat flour disks at 3 ppm after 3 days by flour disk bioassay; assay type: functional
[28] = test system: Tribolium castaneum; test: Feeding deterrent activity against adult Tribolium castaneum (red flour beetle) on compound pre-treated wheat flour disks assessed as mortality at 30 ppm after 3 days by flour disk bioassay (reference value: 0%); assay type: functional
[29] = test system: Tribolium castaneum; test: Feeding deterrent activity against adult Tribolium castaneum (red flour beetle) on compound pre-treated wheat flour disks assessed as mortality at 10 ppm after 3 days by flour disk bioassay (reference value: 0%); assay type: functional
[30] = test system: Tribolium castaneum; test: Feeding deterrent activity against adult Tribolium castaneum (red flour beetle) on compound pre-treated wheat flour disks assessed as mortality at 3 ppm after 3 days by flour disk bioassay (reference value: 0%); assay type: functional
[31] = test system: Sitophilus zeamais; test: Feeding deterrent activity against adult Sitophilus zeamais on compound pretreated wheat flour disks assessed as mortality at 100 ppm after 3 days by flour disk bioassay (reference value: 0%); assay type: functional
[32] = test system: Sitophilus zeamais; test: Feeding deterrent activity against adult Sitophilus zeamais on compound pretreated wheat flour disks assessed as mortality at 10 ppm after 3 days by flour disk bioassay (reference value: 0%); assay type: functional
[33] = test system: Sitophilus zeamais; test: Feeding deterrent activity against adult Sitophilus zeamais on compound pretreated wheat flour disks assessed as mortality at 3 ppm after 3 days by flour disk bioassay (reference value: 0%); assay type: functional
[34] = test system: Tribolium castaneum; test: Feeding deterrent activity against adult Tribolium castaneum (red flour beetle) on compound pre-treated wheat flour disks assessed as food utilization rate at 300 ppm after 3 days by flour disk bioassay (reference value: 20.59 +/-1.47%); assay type: functional
[35] = test system: Tribolium castaneum; test: Feeding deterrent activity against adult Tribolium castaneum (red flour beetle) on compound pre-treated wheat flour disks assessed as food utilization rate at 100 ppm after 3 days by flour disk bioassay (reference value: 20.59 +/-1.47%); assay type: functional

SMILES | ECI [1] [%] | ECI [2] [%] | ECI [3] [%] | ECI [4] [%] | ECI [5] [%] | ECI [6] [%] | Activity [7] [µg/mg/day] | Activity [8] [µg/mg/day] | Activity [9] [µg/mg/day] | Activity [10] [µg/mg/day] | Activity [11] [µg/mg/day] | Activity [12] [µg/mg/day] | EC50 [13] [ppm] | FDI [14] [%] | Activity [15] [µg/mg/day] | Activity [16] [µg/mg/day] | Activity [17] [µg/mg/day] | Activity [18] [µg/mg/day] | Activity [19] [µg/mg/day] | Activity [20] [µg/mg/day] | further results
CCCCCCCc1cc(=O)c2ccccc2n1C [SCHINIFOLINE] | 20.68 | 5.92 | 7.54 | 10.07 | 10.73 | 11.21 | 79.64 | 119.29 | 139.51 | 10.51 | 34.51 | 122.39 | 47.81 | 18.64 | 13.13 | 24.24 | 28.85 | 0.4 | 2.04 | 3.79 | Activity [21]: 12.25 µg/mg/day; Activity [22]: 9.06 µg/mg/day; FDI [23]: 4.46%; FDI [24]: 72.35%; FDI [25]: 59.19%; FDI [26]: 10.28%; FDI [27]: 1.47%; mortality at 30 ppm [28]: 0%; mortality at 10 ppm [29]: 0%; mortality at 3 ppm [30]: 0%; mortality at 100 ppm [31]: 0%; mortality at 10 ppm [32]: 0%; mortality at 3 ppm [33]: 0%; ECI [34]: 7.53%; ECI [35]: 11.57%
COc1ccc2c(OC)c3ccoc3nc2c1OC [SKIMMIANINE] | 20.25 | 6.81 | 8.37 | 10.34 | 10.67 | 10.98 | 101.27 | 124.71 | 137.89 | 18.31 | 45.13 | 120.9 | 75.71 | 13.21 | 15.31 | 24.21 | 27.92 | 0.77 | 3.07 | 4.99 | Activity [21]: 12.03 µg/mg/day; Activity [22]: 9.6 µg/mg/day; FDI [23]: 4.31%; FDI [24]: 60.24%; FDI [25]: 47.32%; FDI [26]: 10.21%; FDI [27]: 3.53%; mortality at 30 ppm [28]: 0%; mortality at 10 ppm [29]: 0%; mortality at 3 ppm [30]: 0%; mortality at 100 ppm [31]: 0%; mortality at 10 ppm [32]: 0%; mortality at 3 ppm [33]: 0%; ECI [34]: 10.03%; ECI [35]: 13.72%
